Results reported in PubChem BioAssay (NCI).
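A five-concentration, 48-hour dose response in 96-well plates underlies each endpoint, interpolated linearly between surrounding concentrations. TGI: total growth inhibition.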

Key:
Test in all cases: NCI tumour cell line growth inhibition, 48 h
SK-MEL-28 melanoma = tested on: SK-MEL-28 melanoma
BT-549 breast = tested on: BT-549 breast
K-562 leukemia = tested on: K-562 leukemia
RPMI-8226 leukemia = tested on: RPMI-8226 leukemia
SNB-75 CNS = tested on: SNB-75 CNS
MCF7 breast = tested on: MCF7 breast
OVCAR-3 ovarian = tested on: OVCAR-3 ovarian
SK-MEL-2 melanoma = tested on: SK-MEL-2 melanoma
HOP-92 NSCLC = tested on: HOP-92 NSCLC
ACHN renal = tested on: ACHN renal
SNB-19 CNS = tested on: SNB-19 CNS
LOX IMVI melanoma = tested on: LOX IMVI melanoma
NCI/ADR-RES ovarian = tested on: NCI/ADR-RES ovarian
OVCAR-5 ovarian = tested on: OVCAR-5 ovarian
SK-OV-3 ovarian = tested on: SK-OV-3 ovarian
HOP-62 NSCLC = tested on: HOP-62 NSCLC
PC-3 prostate = tested on: PC-3 prostate
RXF 393 renal = tested on: RXF 393 renal
UO-31 renal = tested on: UO-31 renal
UACC-62 melanoma = tested on: UACC-62 melanoma
MDA-MB-435 = tested on: MDA-MB-435
MDA-N = tested on: MDA-N
MOLT-4 leukemia = tested on: MOLT-4 leukemia
HT29 colon = tested on: HT29 colon
SN12C renal = tested on: SN12C renal
MDA-MB-231 breast = tested on: MDA-MB-231 breast
SF-268 CNS = tested on: SF-268 CNS
HCC-2998 colon = tested on: HCC-2998 colon
NCI-H226 lung = tested on: NCI-H226 lung
CAKI-1 renal = tested on: CAKI-1 renal
M14 melanoma = tested on: M14 melanoma
HS 578T breast = tested on: HS 578T breast
DU-145 prostate = tested on: DU-145 prostate
HCT-116 colon = tested on: HCT-116 colon
SK-MEL-5 melanoma = tested on: SK-MEL-5 melanoma
T-47D breast = tested on: T-47D breast
U251 CNS = tested on: U251 CNS
786-0 renal = tested on: 786-0 renal
A549 NSCLC = tested on: A549 NSCLC
SF-539 CNS = tested on: SF-539 CNS
SF-295 CNS = tested on: SF-295 CNS
EKVX NSCLC = tested on: EKVX NSCLC
SW-620 colon = tested on: SW-620 colon
UACC-257 melanoma = tested on: UACC-257 melanoma
OVCAR-8 ovarian = tested on: OVCAR-8 ovarian
KM12 colon = tested on: KM12 colon
NCI-H522 lung = tested on: NCI-H522 lung
NCI-H23 lung = tested on: NCI-H23 lung
COLO 205 colon = tested on: COLO 205 colon
TK-10 renal = tested on: TK-10 renal
HL-60(TB) leukemia = tested on: HL-60(TB) leukemia
IGROV1 ovarian = tested on: IGROV1 ovarian
HCT-15 colon = tested on: HCT-15 colon
SR leukemia = tested on: SR leukemia
NCI-H460 lung = tested on: NCI-H460 lung
A498 renal = tested on: A498 renal
OVCAR-4 ovarian = tested on: OVCAR-4 ovarian
MALME-3M melanoma = tested on: MALME-3M melanoma
CCRF-CEM leukemia = tested on: CCRF-CEM leukemia

COc1ccc(C2SCC(=O)N2NC(=O)C(C)Oc2ccc(Cl)cc2Cl)cc1 (centres undefined)
TGI (SK-MEL-28 melanoma): 96.3 µM | TGI (BT-549 breast): 52.8 µM | TGI (K-562 leukemia): 89.8 µM | TGI (RPMI-8226 leukemia): > 100 µM | TGI (SNB-75 CNS): 51.1 µM | TGI (MCF7 breast): > 100 µM | TGI (OVCAR-3 ovarian): > 100 µM | TGI (SK-MEL-2 melanoma): > 100 µM | TGI (HOP-92 NSCLC): 63.6 µM | TGI (ACHN renal): > 100 µM | TGI (SNB-19 CNS): > 100 µM | TGI (LOX IMVI melanoma): > 100 µM | TGI (NCI/ADR-RES ovarian): > 100 µM | TGI (OVCAR-5 ovarian): > 100 µM | TGI (SK-OV-3 ovarian): > 100 µM | TGI (HOP-62 NSCLC): 48.2 µM | TGI (PC-3 prostate): 75.6 µM | TGI (RXF 393 renal): 59.2 µM | TGI (UO-31 renal): > 100 µM | TGI (UACC-62 melanoma): > 100 µM | TGI (MDA-MB-435): > 100 µM | TGI (MDA-N): > 100 µM | TGI (MOLT-4 leukemia): 94.6 µM | TGI (HT29 colon): > 100 µM | TGI (SN12C renal): > 100 µM | TGI (MDA-MB-231 breast): 81 µM | TGI (SF-268 CNS): > 100 µM | TGI (HCC-2998 colon): > 100 µM | TGI (NCI-H226 lung): 33.6 µM | TGI (CAKI-1 renal): 47.3 µM | TGI (M14 melanoma): > 100 µM | TGI (HS 578T breast): > 100 µM | TGI (DU-145 prostate): > 100 µM | TGI (HCT-116 colon): > 100 µM | TGI (SK-MEL-5 melanoma): > 100 µM | TGI (T-47D breast): > 100 µM | TGI (U251 CNS): > 100 µM | TGI (786-0 renal): 41.7 µM | TGI (A549 NSCLC): > 100 µM | TGI (SF-539 CNS): 35.9 µM | TGI (SF-295 CNS): > 100 µM | TGI (EKVX NSCLC): > 100 µM | TGI (SW-620 colon): > 100 µM | TGI (UACC-257 melanoma): > 100 µM | TGI (OVCAR-8 ovarian): > 100 µM | TGI (KM12 colon): > 100 µM | TGI (NCI-H522 lung): > 100 µM | TGI (NCI-H23 lung): > 100 µM | TGI (COLO 205 colon): > 100 µM | TGI (TK-10 renal): > 100 µM | TGI (HL-60(TB) leukemia): 34.8 µM | TGI (IGROV1 ovarian): > 100 µM | TGI (HCT-15 colon): > 100 µM | TGI (SR leukemia): 17.3 µM | TGI (NCI-H460 lung): > 100 µM | TGI (A498 renal): 76.4 µM | TGI (OVCAR-4 ovarian): 52.6 µM

COC(=O)[C@@H]1C=C[C@H](NC(C)=O)C1
TGI (SK-MEL-28 melanoma): > 100 µM | TGI (BT-549 breast): > 100 µM | TGI (K-562 leukemia): > 100 µM | TGI (RPMI-8226 leukemia): > 100 µM | TGI (SNB-75 CNS): > 100 µM | TGI (MCF7 breast): > 100 µM | TGI (OVCAR-3 ovarian): > 100 µM | TGI (SK-MEL-2 melanoma): > 100 µM | TGI (HOP-92 NSCLC): > 100 µM | TGI (SNB-19 CNS): > 100 µM | TGI (LOX IMVI melanoma): > 100 µM | TGI (NCI/ADR-RES ovarian): > 100 µM | TGI (OVCAR-5 ovarian): > 100 µM | TGI (SK-OV-3 ovarian): > 100 µM | TGI (HOP-62 NSCLC): > 100 µM | TGI (PC-3 prostate): > 100 µM | TGI (RXF 393 renal): > 100 µM | TGI (UO-31 renal): > 100 µM | TGI (UACC-62 melanoma): > 100 µM | TGI (MDA-MB-435): > 100 µM | TGI (MDA-N): > 100 µM | TGI (MALME-3M melanoma): > 100 µM | TGI (MOLT-4 leukemia): > 100 µM | TGI (HT29 colon): > 100 µM | TGI (SN12C renal): > 100 µM | TGI (MDA-MB-231 breast): > 100 µM | TGI (HCC-2998 colon): > 100 µM | TGI (NCI-H226 lung): > 100 µM | TGI (CAKI-1 renal): > 100 µM | TGI (M14 melanoma): > 100 µM | TGI (HS 578T breast): > 100 µM | TGI (DU-145 prostate): > 100 µM | TGI (HCT-116 colon): > 100 µM | TGI (CCRF-CEM leukemia): > 100 µM | TGI (SK-MEL-5 melanoma): > 100 µM | TGI (T-47D breast): > 100 µM | TGI (U251 CNS): > 100 µM | TGI (SF-295 CNS): > 100 µM | TGI (SW-620 colon): > 100 µM | TGI (UACC-257 melanoma): > 100 µM | TGI (OVCAR-8 ovarian): > 100 µM | TGI (KM12 colon): > 100 µM | TGI (NCI-H23 lung): > 100 µM | TGI (COLO 205 colon): > 100 µM | TGI (TK-10 renal): > 100 µM | TGI (IGROV1 ovarian): > 100 µM | TGI (HCT-15 colon): > 100 µM | TGI (SR leukemia): > 100 µM | TGI (NCI-H460 lung): > 100 µM | TGI (A498 renal): > 100 µM | TGI (OVCAR-4 ovarian): > 100 µM

COC(=O)c1cc(C)ccc1C1CN=NC12Cc1c(C)cc(C)cc1C2=O (centres undefined)
TGI (SK-MEL-28 melanoma): > 100 µM | TGI (BT-549 breast): 69.3 µM | TGI (K-562 leukemia): > 100 µM | TGI (SNB-75 CNS): 66.8 µM | TGI (MCF7 breast): 69.1 µM | TGI (OVCAR-3 ovarian): 75.5 µM | TGI (SK-MEL-2 melanoma): 33.1 µM | TGI (HOP-92 NSCLC): 40.9 µM | TGI (ACHN renal): > 100 µM | TGI (SNB-19 CNS): > 100 µM | TGI (LOX IMVI melanoma): 30.3 µM | TGI (NCI/ADR-RES ovarian): 46.8 µM | TGI (OVCAR-5 ovarian): > 100 µM | TGI (SK-OV-3 ovarian): 69 µM | TGI (HOP-62 NSCLC): > 100 µM | TGI (PC-3 prostate): > 100 µM | TGI (RXF 393 renal): 72.5 µM | TGI (UO-31 renal): > 100 µM | TGI (UACC-62 melanoma): 49.6 µM | TGI (MDA-MB-435): > 100 µM | TGI (MDA-N): 42 µM | TGI (MALME-3M melanoma): 60.6 µM | TGI (MOLT-4 leukemia): 56.2 µM | TGI (HT29 colon): 45.8 µM | TGI (SN12C renal): > 100 µM | TGI (MDA-MB-231 breast): 65.7 µM | TGI (SF-268 CNS): 98.9 µM | TGI (HCC-2998 colon): 78.2 µM | TGI (NCI-H226 lung): 87.6 µM | TGI (CAKI-1 renal): > 100 µM | TGI (M14 melanoma): 41.9 µM | TGI (HS 578T breast): 55.8 µM | TGI (DU-145 prostate): > 100 µM | TGI (HCT-116 colon): 28.6 µM | TGI (CCRF-CEM leukemia): 86.5 µM | TGI (SK-MEL-5 melanoma): 31.6 µM | TGI (T-47D breast): > 100 µM | TGI (U251 CNS): > 100 µM | TGI (786-0 renal): > 100 µM | TGI (A549 NSCLC): > 100 µM | TGI (SF-539 CNS): 32.7 µM | TGI (SF-295 CNS): 97.4 µM | TGI (EKVX NSCLC): > 100 µM | TGI (SW-620 colon): > 100 µM | TGI (UACC-257 melanoma): 69.7 µM | TGI (OVCAR-8 ovarian): > 100 µM | TGI (KM12 colon): 39.1 µM | TGI (NCI-H522 lung): 34.5 µM | TGI (NCI-H23 lung): 50.4 µM | TGI (COLO 205 colon): 31.4 µM | TGI (TK-10 renal): 82.5 µM | TGI (HL-60(TB) leukemia): 29.3 µM | TGI (IGROV1 ovarian): > 100 µM | TGI (HCT-15 colon): 69.1 µM | TGI (NCI-H460 lung): 42.7 µM | TGI (OVCAR-4 ovarian): 80 µM
